According to patent US11130769B2 (Prelude Therapeutics Incorporated, priority 2018, dated 2021):

Experiments:
MCL-1 = MCL-1 (Homo sapiens (Human), UniProt Q07820); assay: Cell free Mcl-1:Bim affinity assay (fluorescence polarization competition); type: binding; conditions: 15 nM MCL-1, 5 nM FITC-Bim, 1 hour at room temperature; class symbols; read-out: BIM_Ki
Procedure, shortened: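 Compounds competed with FITC-labelled Bim peptide (5 nM) for MCL-1 (15 nM) in HEPES/NaCl buffer with 1% DMSO, 1 h at room temperature. Fluorescence polarization (535 nm emission) gave % inhibition versus DMSO and positive controls; IC50 from 10-point curves, converted to Ki by the Nikolovska-Coleska equation.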

H929 cells = assay: Cell viability assay (H929 10 FBS); type: cell-based; conditions: Homo sapiens, NCI-H929, 24 hours, read-out: H929_10FBS IC50
Procedure, shortened: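 H929 cells, 4000/well, in RPMI 1640 with 10% FBS, sodium pyruvate, HEPES and glucose were exposed to compound 24 h at 37 °C. Viability read as luminescence after 30-60 min at RT with CellTiter-Glo or ATPlite 1 Step.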

Sequence of MCL-1 (Q07820 whole entry): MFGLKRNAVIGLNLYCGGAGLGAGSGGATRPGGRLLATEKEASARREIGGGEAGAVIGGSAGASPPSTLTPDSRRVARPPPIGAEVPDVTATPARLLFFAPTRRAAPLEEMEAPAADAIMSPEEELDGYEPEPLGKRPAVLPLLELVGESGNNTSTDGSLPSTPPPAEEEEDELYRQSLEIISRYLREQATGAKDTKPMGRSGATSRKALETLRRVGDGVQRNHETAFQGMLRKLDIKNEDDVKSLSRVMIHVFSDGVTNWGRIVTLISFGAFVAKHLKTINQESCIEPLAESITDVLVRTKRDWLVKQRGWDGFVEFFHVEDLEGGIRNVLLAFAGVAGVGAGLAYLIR

| Ki (MCL-1) [nM] | IC50 (H929 cells) [nM] | Structure (SMILES) |
| --- | --- | --- |
| < 1 | < 1000 | CC1(C)OC/C=C/[C@@H](OCCN2CCCC2)[C@@H]2CC[C@H]2CN2C[C@@]3(CCCc4cc(Cl)ccc43)COc3ccc(cc32)S(=O)(=O)NC1=O [Example 274, (3R,6R,7R,8E,22S)-6′-Chloro-12,12-dimethyl-15,15-dioxo-7-(2-pyrrolidin-1-ylethoxy)spiro[11,20-dioxa-15-thia-1,14-diazatetracyclo[14.7.2.03,6.019,24]pentacosa-8,16,18,24-tetraene-22,1′-tetralin]-13-one] |
| 1 to 100 | < 500 | CN1C/C=C/[C@H](OCCN2CC(F)C2)[C@@H]2CC[C@H]2CN2C[C@@]3(CCCc4cc(Cl)ccc43)COc3ccc(cc32)S(=O)(=O)NC(=O)C1(C)C [Example 275, (3R,6R,7S,8E,22S)-6′-Chloro-7-[2-(3-fluoroazetidin-1-yl)ethoxy]-11,12,12-trimethyl-15,15-dioxo-spiro[20-oxa-15-thia-1,11,14-triazatetracyclo[14.7.2.03,6.019,24]pentacosa-8,16,18,24-tetraene-22,1′-tetralin]-13-one] |
| < 1 | < 1000 | CN1C/C=C/[C@H](OCCN2CC[C@@H](F)C2)[C@@H]2CC[C@H]2CN2C[C@@]3(CCCc4cc(Cl)ccc43)COc3ccc(cc32)S(=O)(=O)NC(=O)C1(C)C [Example 276, (3R,6R,7S,8E,22S)-6′-Chloro-7-[2-[(3R)-3-fluoropyrrolidin-1-yl]ethoxy]-11,12,12-trimethyl-15,15-dioxo-spiro[20-oxa-15-thia-1,11,14-triazatetracyclo[14.7.2.03,6.019,24]pentacosa-8,16,18,24-tetraene-22,1′-tetralin]-13-one] |
| 1 to 100 | > 1000 | COCCN1CCCN(CCO[C@H]2/C=C/CN(C)C(C)(C)C(=O)NS(=O)(=O)c3ccc4c(c3)N(C[C@@H]3CC[C@H]32)C[C@@]2(CCCc3cc(Cl)ccc32)CO4)CC1 [Example 277, (3R,6R,7S,8E,22S)-6′-Chloro-7-[2-[4-(2-methoxyethyl)-1,4-diazepan-1-yl]ethoxy]-11,12,12-trimethyl-15,15-dioxo-spiro[20-oxa-15-thia-1,11,14-triazatetracyclo[14.7.2.03,6.019,24]pentacosa-8,16,18,24-tetraene-22,1′-tetralin]-13-one] |
| < 1 | < 500 | CC1(C)OC/C=C/[C@H](OCC(=O)N2CC(F)(F)C2)[C@@H]2CC[C@H]2CN2C[C@@]3(CCCc4cc(Cl)ccc43)COc3ccc(cc32)S(=O)(=O)NC1=O [Example 278, (3R,6R,7S,8E,22S)-6′-Chloro-7-[2-(3,3-difluoroazetidin-1-yl)-2-oxo-ethoxy]-12,12-dimethyl-15,15-dioxo-spiro[11,20-dioxa-15-thia-1,14-diazatetracyclo[14.7.2.03,6.019,24]pentacosa-8,16,18,24-tetraene-22,1′-tetralin]-13-one] |
| < 1 | < 500 | CC1(C)OC/C=C/[C@H](OCC(=O)N2CCC2)[C@@H]2CC[C@H]2CN2C[C@@]3(CCCc4cc(Cl)ccc43)COc3ccc(cc32)S(=O)(=O)NC1=O [Example 279, (3R,6R,7S,8E,22S)-7-[2-(Azetidin-1-yl)-2-oxo-ethoxy]-6′-chloro-12,12-dimethyl-15,15-dioxo-spiro[11,20-dioxa-15-thia-1,14-diazatetracyclo[14.7.2.03,6.019,24]pentacosa-8,16,18,24-tetraene-22,1′-tetralin]-13-one] |
| < 1 | < 500 | COC1CN(C(=O)CO[C@H]2/C=C/COC(C)(C)C(=O)NS(=O)(=O)c3ccc4c(c3)N(C[C@@H]3CC[C@H]32)C[C@@]2(CCCc3cc(Cl)ccc32)CO4)C1 [Example 280, (3R,6R,7S,8E,22S)-6′-Chloro-7-[2-(3-methoxyazetidin-1-yl)-2-oxo-ethoxy]-12,12-dimethyl-15,15-dioxo-spiro[11,20-dioxa-15-thia-1,14-diazatetracyclo[14.7.2.03,6.019,24]pentacosa-8,16,18,24-tetraene-22,1′-tetralin]-13-one] |
| < 1 | < 500 | CC1(C)OC/C=C/[C@H](OCC(=O)N2CC(F)C2)[C@@H]2CC[C@H]2CN2C[C@@]3(CCCc4cc(Cl)ccc43)COc3ccc(cc32)S(=O)(=O)NC1=O [Example 281, (3R,6R,7S,8E,22S)-6′-Chloro-7-[2-(3-fluoroazetidin-1-yl)-2-oxo-ethoxy]-12,12-dimethyl-15,15-dioxo-spiro[11,20-dioxa-15-thia-1,14-diazatetracyclo[14.7.2.03,6.019,24]pentacosa-8,16,18,24-tetraene-22,1′-tetralin]-13-one] |
| < 1 | < 500 | CC1(C)OC/C=C/[C@H](OCC(=O)NC2CCOCC2)[C@@H]2CC[C@H]2CN2C[C@@]3(CCCc4cc(Cl)ccc43)COc3ccc(cc32)S(=O)(=O)NC1=O [Example 282, 2-[(3R,6R,7S,8E,22S)-6′-Chloro-12,12-dimethyl-13,15,15-trioxo-spiro[11,20-dioxa-15λ6-thia-1,14-diazatetracyclo[14.7.2.03,6.019,24]pentacosa-8,16,18,24-tetraene-22,1′-tetralin]-7-yl]oxy-N-tetrahydropyran-4-yl-acetamide] |
| < 1 | < 500 | CC1(C)OC/C=C/[C@H](OCC(=O)N2CCCC2)[C@@H]2CC[C@H]2CN2C[C@@]3(CCCc4cc(Cl)ccc43)COc3ccc(cc32)S(=O)(=O)NC1=O [Example 283, (3R,6R,7S,8E,22S)-6′-Chloro-12,12-dimethyl-15,15-dioxo-7-(2-oxo-2-pyrrolidin-1-yl-ethoxy)spiro[11,20-dioxa-15-thia-1,14-diazatetracyclo[14.7.2.03,6.019,24]pentacosa-8,16,18,24-tetraene-22,1′-tetralin]-13-one] |
| < 1 | < 500 | CC1(C)OC/C=C/[C@H](OCC(=O)N[C@@H]2CCOC2)[C@@H]2CC[C@H]2CN2C[C@@]3(CCCc4cc(Cl)ccc43)COc3ccc(cc32)S(=O)(=O)NC1=O [Example 284, 2-[(3R,6R,7S,8E,22S)-6′-Chloro-12,12-dimethyl-13,15,15-trioxo-spiro[11,20-dioxa-15λ6-thia-1,14-diazatetracyclo[14.7.2.03,6.019,24]pentacosa-8,16,18,24-tetraene-22,1′-tetralin]-7-yl]oxy-N-[(3R)-tetrahydrofuran-3-yl]acetamide] |
| < 1 | < 500 | CC1(C)OC/C=C/[C@H](OCC(=O)N[C@H]2CCOC2)[C@@H]2CC[C@H]2CN2C[C@@]3(CCCc4cc(Cl)ccc43)COc3ccc(cc32)S(=O)(=O)NC1=O [Example 285, 2-[(3R,6R,7S,8E,22S)-6′-Chloro-12,12-dimethyl-13,15,15-trioxo-spiro[11,20-dioxa-15λ6-thia-1,14-diazatetracyclo[14.7.2.03,6.019,24]pentacosa-8,16,18,24-tetraene-22,1′-tetralin]-7-yl]oxy-N-[(3S)-tetrahydrofuran-3-yl]acetamide] |
| 1 to 100 | > 1000 | CN(C)C(=O)OC1CCCOC(C)(C)C(=O)NS(=O)(=O)c2ccc3c(c2)N(C[C@@H]2CC[C@@H]12)C[C@@]1(CCCc2cc(Cl)ccc21)CO3 (stereo partly drawn) [Example 286, [(3R,6R,22S)-6′-Chloro-12,12-dimethyl-13,15,15-trioxo-spiro[11,20-dioxa-15-thia-1,14-diazatetracyclo[14.7.2.03,6.019,24]pentacosa-16,18,24-triene-22,1′-tetralin]-7-yl] N,N-dimethylcarbamate] |
| < 1 | < 500 | CN1C/C=C/[C@H](OCCN2CC(F)(F)C2)[C@@H]2CC[C@H]2CN2C[C@@]3(CCCc4cc(Cl)ccc43)COc3ccc(cc32)S(=O)(=O)NC(=O)C1(C)C [Example 287, (3R,6R,7S,8E,22S)-6′-Chloro-7-[2-(3,3-difluoroazetidin-1-yl)ethoxy]-11,12,12-trimethyl-15,15-dioxo-spiro[20-oxa-15-thia-1,11,14-triazatetracyclo[14.7.2.03,6.019,24]pentacosa-8,16,18,24-tetraene-22,1′-tetralin]-13-one] |
| 1 to 100 | > 1000 | CN1C/C=C/[C@H](OCCN2CCC(F)(F)C2)[C@@H]2CC[C@H]2CN2C[C@@]3(CCCc4cc(Cl)ccc43)COc3ccc(cc32)S(=O)(=O)NC(=O)C1(C)C [Example 288, (3R,6R,7S,8E,22S)-6′-Chloro-7-[2-(3,3-difluoropyrrolidin-1-yl)ethoxy]-11,12,12-trimethyl-15,15-dioxo-spiro[20-oxa-15-thia-1,11,14-triazatetracyclo[14.7.2.03,6.019,24]pentacosa-8,16,18,24-tetraene-22,1′-tetralin]-13-one] |
| 1 to 100 | > 1000 | CN1C/C=C/[C@H](OCCN2CCCCC2)[C@@H]2CC[C@H]2CN2C[C@@]3(CCCc4cc(Cl)ccc43)COc3ccc(cc32)S(=O)(=O)NC(=O)C1(C)C [Example 289, (3R,6R,7S,8E,22S)-6′-Chloro-11,12,12-trimethyl-15,15-dioxo-7-[2-(1-piperidyl)ethoxy]spiro[20-oxa-15-thia-1,11,14-triazatetracyclo[14.7.2.03,6.019,24]pentacosa-8,16,18,24-tetraene-22,1′-tetralin]-13-one] |
| < 1 | < 500 | CC1(C)OC/C=C/[C@H](OCC(=O)N2C[C@@H](F)[C@H](F)C2)[C@@H]2CC[C@H]2CN2C[C@@]3(CCCc4cc(Cl)ccc43)COc3ccc(cc32)S(=O)(=O)NC1=O [Example 290, (3R,6R,7S,8E,22S)-6′-Chloro-7-[2-[(3R,4R)-3,4-difluoropyrrolidin-1-yl]-2-oxo-ethoxy]-12,12-dimethyl-15,15-dioxo-spiro[11,20-dioxa-15-thia-1,14-diazatetracyclo[14.7.2.03,6.019,24]pentacosa-8,16,18,24-tetraene-22,1′-tetralin]-13-one] |
